Ends that are not written are not given here.
Legend:
microorganisms [1] = experiment: Peptide activities: targeting/binding, antimicrobial, growth or phenotype altering (Tables 7, 8); type: cell-based; set-up: key: B: targeting/binding activity;; M: antimicrobial activity;; G: Growth or phenotype altering; conditions: peptides having multiple activities
microorganisms [2] = experiment: Morphology, biofilm and growth disrupting peptides (Table 5); type: cell-based; set-up: key: A: Peptide aggregates; B: Less hyphal formation; Clumps; Diffuse clumps and small polyps; F: Diffuse growth; H: Thin; I: Growth inhibition; Microcolony formation; Rippled; Small polyps; Thick; W: Halo formation on top, microlonies on bottom
Excerpt: In certain embodiments peptides that induce alterations in phenotype or other biological activities can also be used as antimicrobial effector moieties.

Substance | Activities (microorganisms [1]) | Organism, effect (microorganisms [2]; E. coli) | Organism, effect (microorganisms [2]; E. faecalis) | Organism, effect (microorganisms [2]; MRSA) | Organism, effect (microorganisms [2]; S. epidermidis) | Organism, effect (microorganisms [2]; S. pneumoniae) | Organism, effect (microorganisms [2]; C. jejuni) | Organism, effect (microorganisms [2]; C. albicans) | Organism, effect (microorganisms [2]; P. aeruginosa)
PF-460: peptide having multiple activities (MEHVLPFQNTPPNIVIIYKDFTHLKSITFS; Peptide with targeting and/or antimicrobial activity) | G B | E. coli (H) | E. faecalis (C) | MRSA (C) | S. epidermidis (C) | S. pneumoniae (R) |  |  | 
PF-465: peptide having multiple activities (KPVGKALEEIADGKIEPVVPKEYLG; Peptide with targeting and/or antimicrobial activity) | G B |  |  |  |  | S. pneumoniae (H) |  |  | 
PF-469: peptide having multiple activities (YKVNYNNIDNHFNTLRH; Peptide with targeting and/or antimicrobial activity) | G B | E. coli (C) | E. faecalis (D) | MRSA (D) | S. epidermidis (D) | S. pneumoniae (D) | C. jejuni (D) |  | 
PF-474: peptide having multiple activities (MHRNLVLVKMEPIPHIMIIANQIGIIIEKA; Peptide with targeting and/or antimicrobial activity) | G B | E. coli (C) | E. faecalis (C) | MRSA (D) | S. epidermidis (C) | S. pneumoniae (D) | C. jejuni (D) | C. albicans (B) | P. aeruginosa (A)
PF-478: peptide having multiple activities (HLFILKSHLKPFPPFRYTYD; Peptide with targeting and/or antimicrobial activity) | G B | E. coli (C) |  | MRSA (H) | S. epidermidis (C) | S. pneumoniae (C) |  |  | 
PF-479: peptide having multiple activities (AYILKRREEKNK; Peptide with targeting and/or antimicrobial activity) | G B |  |  |  |  | S. pneumoniae (C) |  |  | 
PF-482: peptide having multiple activities (LVGYVRTSGTVRSYKIN; Peptide with targeting and/or antimicrobial activity) | G B |  |  |  |  | S. pneumoniae (S) |  |  | 
PF-516: peptide having multiple activities (ASKQASKQASKQASKQ; Peptide with targeting and/or antimicrobial activity) | G |  |  |  |  | S. pneumoniae (H) |  |  | 
PF-526: peptide having multiple activities (VLLLFIFQPFQKQLL-NH2) | G B | E. coli (R) |  | MRSA (C) | S. epidermidis (C) | S. pneumoniae (R) |  | C. albicans (C) | 
PF-537: peptide having multiple activities (LANDYYKKTKKSW; Peptide with targeting and/or antimicrobial activity) | G B |  |  |  |  | S. pneumoniae (C) |  |  | 
PF-539: peptide having multiple activities (SIILTKKKRRKIPLSIDSQIYKYTFKQ; Peptide with targeting and/or antimicrobial activity) | G B |  |  | MRSA (H) |  | S. pneumoniae (A) |  |  | 
